The record followed here is patent US10023570B2 (Array BioPharma, Inc., priority 2015, dated 2018).

Like-named read-outs stand apart in the source and are kept apart here.

The target in assay [1] is N-terminal GST tagged recombinant human RET cytoplasmic domain (aa 658-end), wild type RET kinase (Homo sapiens (Human), UniProt P07949). The assay can be described thus: RET Enzyme Assay (HTRF KinEASE-TK), wild type RET. The format is biochemical. To be noted: wild type RET, 1 mM ATP. For orientation: In TR-FRET formats the signal depends on donor and acceptor labels being close together.

The target in assay [2] is human KDR protein in HEK-293 cells (Homo sapiens (Human), UniProt P35968). The assay can be described thus: KDR Cell Assay (phospho-KDR in HEK-293 cells expressing inducible KDR). The assay is classed as cell-based. To be noted: pKDR Cell HEK 10% FBS IC50, HEK-293 cells expressing inducible KDR, VEGF stimulated. A digest of the protocol: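 HEK-293 cells with inducible human KDR were treated with compound for 1 h in DMEM (0.25% DMSO final), then lysed. Phospho-KDR was quantified by Meso Scale immunoassay, expressed as percent of control, and IC50 taken where a 4-parameter logistic fit crossed 50 POC.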

In assay [3] the target is Kif5b-RET fusion protein in HEK-293 cells (Homo sapiens, UniProt P07949). Kind of assay: cell-based. Here is the method: The cellular potency of a compound inhibiting RET kinase was determined in HEK-293 cells expressing a Kif5b-RET fusion protein. Briefly, HEK-293 cells expressing a Kif5b-RET fusion protein were plated at 50K cells/well in 96 well poly-D-Lysine coated plates the day prior to the assay. The cells were incubated for 1 hour with test compound in DMEM (Dulbecco's Modified Eagle Medium) at a final DMSO concentration of 0.5%. […] After 1 hour the media was removed, the cells were fixed with 3.8% formaldehyde for 20 min, washed with PBS, and permeabilized for 10 min with 100% methanol. […] All antibodies were diluted in LI-COR Block containing 0.05% Tween. The plates were washed with PBS-0.05% Tween20, 100 μL PBS was added to each well, and the plates were read on a LI-COR Aerius fluorescent plate reader. The phospho-RET signal was normalized to the GAPDH signal. […] The IC50 value is the point where the curve crosses 50 POC.

The mark [4] stands for this setting: HEK-293 cells expressing Kif5b-RET, phospho-RET(Tyr1062), read-out: KIF5B-RET pTYR1062 Cell IC50.
The mark [5] stands for this setting: HEK-293 cells expressing Kif5b-RET, read-out: KIF5B-RET pTYR1062 Cell IC50.

Sequence of human KDR protein in HEK-293 cells (P35968 20-1356): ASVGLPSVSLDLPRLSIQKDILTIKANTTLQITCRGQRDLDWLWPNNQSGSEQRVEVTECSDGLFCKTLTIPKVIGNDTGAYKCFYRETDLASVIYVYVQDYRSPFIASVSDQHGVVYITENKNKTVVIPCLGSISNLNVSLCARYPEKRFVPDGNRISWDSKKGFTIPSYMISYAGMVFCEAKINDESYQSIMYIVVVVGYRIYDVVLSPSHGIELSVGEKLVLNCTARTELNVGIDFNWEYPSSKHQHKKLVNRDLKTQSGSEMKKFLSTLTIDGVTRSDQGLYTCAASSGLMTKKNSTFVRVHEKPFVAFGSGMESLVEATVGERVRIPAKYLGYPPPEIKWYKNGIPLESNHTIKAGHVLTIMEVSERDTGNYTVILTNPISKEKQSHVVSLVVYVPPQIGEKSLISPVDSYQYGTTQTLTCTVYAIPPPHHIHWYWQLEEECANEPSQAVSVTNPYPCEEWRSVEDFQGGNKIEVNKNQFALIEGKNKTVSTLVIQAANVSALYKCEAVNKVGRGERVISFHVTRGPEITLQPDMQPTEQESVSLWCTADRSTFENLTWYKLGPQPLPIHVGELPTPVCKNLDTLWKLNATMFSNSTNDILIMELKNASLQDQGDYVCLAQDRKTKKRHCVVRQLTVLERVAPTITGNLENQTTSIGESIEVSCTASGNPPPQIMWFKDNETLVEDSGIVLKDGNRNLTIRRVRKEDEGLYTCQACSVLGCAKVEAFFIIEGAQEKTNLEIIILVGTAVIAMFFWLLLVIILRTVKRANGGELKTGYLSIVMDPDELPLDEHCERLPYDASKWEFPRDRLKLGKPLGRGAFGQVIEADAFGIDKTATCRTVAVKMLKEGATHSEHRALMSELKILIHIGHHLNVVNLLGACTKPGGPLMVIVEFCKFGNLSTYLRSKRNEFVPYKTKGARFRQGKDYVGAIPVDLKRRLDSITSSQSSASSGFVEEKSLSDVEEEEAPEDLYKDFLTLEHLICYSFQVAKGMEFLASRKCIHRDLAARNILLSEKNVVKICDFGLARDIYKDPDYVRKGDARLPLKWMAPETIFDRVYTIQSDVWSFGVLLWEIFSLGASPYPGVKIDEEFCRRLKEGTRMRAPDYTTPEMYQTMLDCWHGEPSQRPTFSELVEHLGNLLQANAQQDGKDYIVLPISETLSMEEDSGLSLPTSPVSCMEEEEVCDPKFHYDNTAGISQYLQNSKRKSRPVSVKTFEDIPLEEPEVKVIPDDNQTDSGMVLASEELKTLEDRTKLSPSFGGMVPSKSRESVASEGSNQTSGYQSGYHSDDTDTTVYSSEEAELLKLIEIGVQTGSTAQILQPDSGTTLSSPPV
Sequence of N-terminal GST tagged recombinant human RET cytoplasmic domain (aa 658-end), wild type RET kinase (P07949 658-1114): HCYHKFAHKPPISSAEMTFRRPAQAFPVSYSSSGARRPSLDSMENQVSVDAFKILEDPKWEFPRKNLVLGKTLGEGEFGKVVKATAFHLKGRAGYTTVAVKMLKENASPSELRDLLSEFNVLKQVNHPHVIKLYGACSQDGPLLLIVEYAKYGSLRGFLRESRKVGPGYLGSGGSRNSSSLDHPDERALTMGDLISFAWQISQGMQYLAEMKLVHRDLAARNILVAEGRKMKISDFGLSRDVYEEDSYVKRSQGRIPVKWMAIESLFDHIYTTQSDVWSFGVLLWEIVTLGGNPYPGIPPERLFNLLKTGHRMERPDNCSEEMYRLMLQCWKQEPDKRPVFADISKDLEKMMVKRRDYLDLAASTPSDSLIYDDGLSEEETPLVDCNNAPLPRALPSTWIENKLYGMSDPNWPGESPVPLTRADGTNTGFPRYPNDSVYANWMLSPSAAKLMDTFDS
Sequence of Kif5b-RET fusion protein in HEK-293 cells (P07949 29-1114 limits assumed): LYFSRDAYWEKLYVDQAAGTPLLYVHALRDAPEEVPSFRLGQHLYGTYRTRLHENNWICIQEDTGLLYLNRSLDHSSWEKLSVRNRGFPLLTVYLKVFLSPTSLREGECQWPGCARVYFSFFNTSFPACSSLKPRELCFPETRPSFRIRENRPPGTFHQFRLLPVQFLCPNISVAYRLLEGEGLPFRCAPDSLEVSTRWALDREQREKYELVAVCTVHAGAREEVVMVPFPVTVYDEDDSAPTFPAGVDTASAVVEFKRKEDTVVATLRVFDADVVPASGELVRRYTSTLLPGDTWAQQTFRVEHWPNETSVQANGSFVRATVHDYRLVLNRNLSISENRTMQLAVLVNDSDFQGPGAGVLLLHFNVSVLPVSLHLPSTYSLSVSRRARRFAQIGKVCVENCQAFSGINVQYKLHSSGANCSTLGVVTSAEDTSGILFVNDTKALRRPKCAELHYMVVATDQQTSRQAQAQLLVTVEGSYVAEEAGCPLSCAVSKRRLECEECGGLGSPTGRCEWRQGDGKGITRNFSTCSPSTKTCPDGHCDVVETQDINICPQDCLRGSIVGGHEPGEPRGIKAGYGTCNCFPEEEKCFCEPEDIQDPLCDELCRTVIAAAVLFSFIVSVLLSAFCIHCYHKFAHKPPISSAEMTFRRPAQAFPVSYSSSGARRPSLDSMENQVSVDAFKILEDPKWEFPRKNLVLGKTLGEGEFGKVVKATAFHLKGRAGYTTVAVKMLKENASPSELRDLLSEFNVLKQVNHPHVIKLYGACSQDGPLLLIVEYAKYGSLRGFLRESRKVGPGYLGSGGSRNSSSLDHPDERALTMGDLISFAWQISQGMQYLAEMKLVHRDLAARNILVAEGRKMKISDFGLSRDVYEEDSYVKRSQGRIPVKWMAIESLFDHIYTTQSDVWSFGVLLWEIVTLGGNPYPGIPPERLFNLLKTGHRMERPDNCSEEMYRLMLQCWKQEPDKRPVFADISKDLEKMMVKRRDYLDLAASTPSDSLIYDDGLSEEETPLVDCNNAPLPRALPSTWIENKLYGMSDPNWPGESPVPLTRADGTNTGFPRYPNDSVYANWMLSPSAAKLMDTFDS

In the case of `Cn1cc(-c2cc(-c3ccc(N4CCN(C(=O)[C@H](O)C(F)(F)F)CC4)nc3)c3c(C#N)cnn3c2)cn1` [Example 61, (S)-6-(1-methyl-1H-pyrazol-4-yl)-4-(6-(4-(3,3,3-trifluoro-2-hydroxypropanoyl)piperazin-1-yl)pyridin-3-yl)pyrazolo[1,5-a]pyridine-3-carbonitrile], the figures for the IC50 in assay [1], in assay [2] (10% FBS) and in assay [3] (setting [4]) were 5.5 nM, 148 nM and 5.5 nM, respectively.

Consider `CCNC(=O)N1CCN(c2ccc(-c3cc(-c4cnn(C)c4)cn4ncc(C#N)c34)cn2)CC1` [Example 134, 4-(5-(3-cyano-6-(1-methyl-1H-pyrazol-4-yl)pyrazolo[1,5-a]pyridin-4-yl)pyridin-2-yl)-N-ethylpiperazine-1-carboxamide], for which the results for the IC50 in assay [1], in assay [2] (10% FBS) and in assay [3] (setting [4]) were 5.5 nM, 320 nM and 11.5 nM, respectively.

On to `Cn1cc(-c2cc(-c3ccc(N4CCN(C(=O)NC(C)(C)C)CC4)nc3)c3c(C#N)cnn3c2)cn1` [Example 128, N-(tert-butyl)-4-(5-(3-cyano-6-(1-methyl-1H-pyrazol-4-yl)pyrazolo[1,5-a]pyridin-4-yl)pyridin-2-yl)piperazine-1-carboxamide], for which the IC50 in assay [1] is 11.6 nM; in assay [2] (10% FBS) it was 555 nM; in assay [3] (setting [4]), 11.1 nM.

`COc1ccc(CN2CCN(c3ccc(-c4cc(-c5cnn(C)c5)cn5ncc(C#N)c45)cn3)CC2)nc1` [Example 458, 4-(6-(4-((5-methoxypyridin-2-yl)methyl)piperazin-1-yl)pyridin-3-yl)-6-(1-methyl-1H-pyrazol-4-yl)pyrazolo[1,5-a]pyridine-3-carbonitrile]: the values for the IC50 in assay [1], in assay [2] and in assay [3] were 6.9 nM, 324 nM and 2.4 nM, respectively.

As for `CCC(=O)N1CCN(c2ccc(-c3cc(-c4cnn(C)c4)cn4ncc(C#N)c34)cn2)CC1` [Example 67, 6-(1-methyl-1H-pyrazol-4-yl)-4-(6-(4-propionylpiperazin-1-yl)pyridin-3-yl)pyrazolo[1,5-a]pyridine-3-carbonitrile], the IC50 in assay [1] came to 19.4 nM; in assay [2] (10% FBS), 522 nM; in assay [3] (setting [4]), 60.7 nM.

In the case of `CC[C@H](CO)NC(=O)N1CCN(c2ccc(-c3cc(-c4cnn(C)c4)cn4ncc(C#N)c34)cn2)CC1` [Example 96, (R)-4-(5-(3-cyano-6-(1-methyl-1H-pyrazol-4-yl)pyrazolo[1,5-a]pyridin-4-yl)pyridin-2-yl)-N-(1-hydroxybutan-2-yl)piperazine-1-carboxamide], the concentration for half-maximal inhibition (IC50) in assay [1] was 6.3 nM; in assay [2] (10% FBS) it was 1560 nM; in assay [3] (setting [4]), 51.9 nM.

Regarding `N#Cc1cnn2cc(-c3cn[nH]c3)cc(-c3ccc(N4CCN(Cc5ccccc5)CC4)nc3)c12` [Example 591, 4-(6-(4-benzylpiperazin-1-yl)pyridin-3-yl)-6-(1H-pyrazol-4-yl)pyrazolo[1,5-a]pyridine-3-carbonitrile], the results for the half-inhibitory concentration (IC50) in assay [1], in assay [2] and in assay [3] (setting [5]) were 5.7 nM, 1490 nM and 4.1 nM, respectively.

Turning to `CC(C)C(O)CN1CCN(c2ccc(-c3cc(-c4cnn(C)c4)cn4ncc(Cl)c34)cn2)CC1` (stereo not shown) [Example 648, 1-(4-(5-(3-chloro-6-(1-methyl-1H-pyrazol-4-yl)pyrazolo[1,5-a]pyridin-4-yl)pyridine-2-yl)piperazin-1-yl)-3-methylbutan-2-ol], the IC50 was determined as 34.1 nM in assay [1] and 183 nM in assay [3].

For the compound `CN(C)CCC(=O)N1CCN(c2ccc(-c3cc(-c4cnn(C)c4)cn4ncc(C#N)c34)cn2)CC1` [Example 33, 4-(6-(4-(3-(dimethylamino)propanoyl)piperazin-1-yl)pyridin-3-yl)-6-(1-methyl-1H-pyrazol-4-yl)pyrazolo[1,5-a]pyridine-3-carbonitrile bis(2,2,2-trifluoroacetate)], the IC50 was determined as 42.9 nM in assay [1] and 310 nM in assay [3] (read-out: KIF5B-RET pTYR1062 Cell IC50).

`COc1ccc(CN2CCN(c3ccc(-c4cc(-c5cnn(CC(C)OC)c5)cn5ncc(C#N)c45)cn3)CC2)cn1` (stereo not shown) [Example 709, 6-(1-(2-methoxypropyl)-1H-pyrazol-4-yl)-4-(6-(4-((6-methoxypyridin-3-yl)methyl)piperazin-1-yl)pyridin-3-yl)pyrazolo[1,5-a]pyridine-3-carbonitrile]: the figures for the half-maximal inhibitory concentration (IC50) in assay [1] and in assay [3] (setting [5]) were 26.2 nM and 9.3 nM, respectively.

With `CCc1nn(CC)cc1-c1cc(-c2ccc(N3CCN(Cc4ccccc4)CC3)nc2)c2c(C#N)cnn2c1` [Example 615, 4-(6-(4-benzylpiperazin-1-yl)pyridin-3-yl)-6-(1,3-diethyl-1H-pyrazol-4-yl)pyrazolo[1,5-a]pyridine-3-carbonitrile], the IC50 in assay [1] was 60 nM; in assay [3] it was 117 nM.

`COc1ccc(CN2CCN(c3ccc(-c4cc(-c5cnn(C)c5)cn5ncc(C#N)c45)cn3)CC2)c(C)n1` [Example 678, 4-(6-(4-((6-methoxy-2-methylpyridin-3-yl)methyl)piperazin-l-yl)pyridin-3-yl)-6-(1-methyl-1H-pyrazol-4-yl)pyrazolo[1,5-a]pyridine-3-carbonitrile]: the IC50 is 15 nM in assay [1] and 16.3 nM in assay [3].

For the compound `COc1ccc(CN2CCN(c3ncc(-c4cc(-c5cnn(C)c5)cn5ncc(C#N)c45)cc3F)CC2)cn1` [Example 736, 4-(5-fluoro-6-(4-((6-methoxypyridin-3-yl)methyl)piperazin-1-yl)pyridin-3-yl)-6-(1-methyl-1H-pyrazol-4-yl)pyrazolo[1,5-a]pyridine-3-carbonitrile], the results for the IC50 in assay [1] and in assay [3] were 35.1 nM and 67.4 nM, respectively.

On to `Cn1cc(-c2cc(-c3ccc(N4CCC(C(=O)NOCCO)CC4)nc3)c3c(C#N)cnn3c2)cn1` [Example 566, 1-(5-(3-cyano-6-(1-methyl-1H-pyrazol-4-yl)pyrazolo[1,5-a]pyridin-4-yl)pyridin-2-yl)-N-(2-hydroxyethoxy)piperidine-4-carboxamide], for which the IC50 was found to be 9 nM in assay [1] and 146 nM in assay [3] (setting [5]).

Regarding `C[C@H](O)C(=O)NC1CCN(c2ccc(-c3cc(-c4cnn(C)c4)cn4ncc(C#N)c34)cn2)CC1` [Example 180, (S)-N-(1-(5-(3-cyano-6-(1-methyl-1H-pyrazol-4-yl)pyrazolo[1,5-a]pyridin-4-yl)pyridin-2-yl)piperidin-4-yl)-2-hydroxypropanamide], the results for the 50% inhibitory concentration (IC50) in assay [1] and in assay [3] (setting [4]) were 13.6 nM and 135 nM, respectively.

For `COc1ccc(CN2CCN(c3ccc(-c4cc(-c5cnn(C)c5)cn5ncc(Cl)c45)cn3)CC2)cn1` [Example 742, 3-chloro-4-(6-(4-((6-methoxypyridin-3-yl)methyl)piperazin-1-yl)pyridin-3-yl)-6-(1-methyl-1H-pyrazol-4-yl)pyrazolo[1,5-a]pyridine], the figures for the IC50 in assay [1] and in assay [3] were 37.3 nM and 38.5 nM, respectively.

Turning to `Cn1cc(-c2cc(-c3ccc(N4CCC(S(=O)(=O)O)CC4)nc3)c3c(C#N)cnn3c2)cn1` [Example 568, 1-(5-(3-cyano-6-(1-methyl-1H-pyrazol-4-yl)pyrazolo[1,5-a]pyridin-4-yl)pyridin-2-yl)piperidine-4-sulfonic acid], the figures for the IC50 in assay [1] and in assay [3] (setting [5]) were 6.1 nM and 5000 nM, respectively.

`Cc1nn(C(C)(C)C)cc1-c1cc(-c2ccc(N3CCN(Cc4ccccc4)CC3)nc2)c2c(C#N)cnn2c1` [Example 616, 4-(6-(4-benzylpiperazin-1-yl)pyridin-3-yl)-6-(1-(tert-butyl)-3-methyl-1H-pyrazol-4-yl)pyrazolo[1,5-a]pyridine-3-carb onitrile]: the IC50 in assay [1] came out at 60.8 nM; in assay [3] it was 85.2 nM.

As usually defined, the IC50 is the concentration that gives 50% inhibition.
